According to paper PMC10221159, “Investigation of N-Acetyltransferase 2-Mediated Drug Interactions of Amifampridine: In Vitro and In Vivo Evidence of Drug Interactions with Acetaminophen” (Pharmaceutics, 2023):
Values joined by “and” are separate entries in the source; they are usually repeats but may differ in a detail not shown here. Equal values may be shown once. Read-outs that look alike come from different tables or passages of the source.

Assays:
NAT2 [1] = target: T1, NAT2 (Homo sapiens, UniProt P11245); assay: Inhibition of amifampridine acetylation to 3-N-acetylamifampridine by NAT2 inhibitors, human liver S9 fraction; assay type: biochemical; conditions: amifampridine 50 μM, 15 min
T1 construct: in vitro using S9 fractions obtained from human, rat, and mouse livers; from tissue; host or cells: human liver S9 fraction
T1 sequence (P11245 1-290): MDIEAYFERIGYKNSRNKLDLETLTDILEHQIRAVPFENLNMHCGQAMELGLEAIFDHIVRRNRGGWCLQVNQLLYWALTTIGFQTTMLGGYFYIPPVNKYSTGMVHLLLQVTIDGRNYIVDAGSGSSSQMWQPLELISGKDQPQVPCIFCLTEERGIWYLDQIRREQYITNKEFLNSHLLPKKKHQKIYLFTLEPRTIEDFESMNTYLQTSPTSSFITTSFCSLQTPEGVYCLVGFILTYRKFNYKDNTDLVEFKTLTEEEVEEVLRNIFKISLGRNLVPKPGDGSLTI

[2] = design: method as in PMID 21074742; conditions: humans, oral or intravenous administration; cited from earlier work
NAT2 [3] = target: T2, NAT2 (Rattus norvegicus, UniProt P50298); assay: Inhibition of amifampridine acetylation to 3-N-acetylamifampridine by NAT2 inhibitors, rat liver S9 fraction; assay type: biochemical; conditions: rat vs human liver S9 fractions
T2 sequence (P50298 1-290): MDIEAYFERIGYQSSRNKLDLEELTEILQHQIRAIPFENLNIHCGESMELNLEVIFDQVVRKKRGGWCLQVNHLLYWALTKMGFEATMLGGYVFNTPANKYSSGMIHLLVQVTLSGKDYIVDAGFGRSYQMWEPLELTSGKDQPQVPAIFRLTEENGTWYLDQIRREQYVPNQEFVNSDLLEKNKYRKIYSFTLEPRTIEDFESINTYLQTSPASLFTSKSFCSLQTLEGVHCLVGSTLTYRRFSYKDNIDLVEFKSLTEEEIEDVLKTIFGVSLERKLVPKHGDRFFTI
Procedure: To determine the half maximal inhibitory concentration (IC50) value of NAT2 inhibitors (acetaminophen, apocynin, and cimetidine) on the metabolism of amifampridine to 3-N-acetylamifampridine, the reaction mixture consisted of a liver S9 fraction (2 mg/mL protein) and 2 mM acetyl-CoA in potassium phosphate buffer was pre-incubated for 5 min in a thermomixer at 37 °C. Then, the NAT2 inhibitors (final concentrations of 0, 1, 5, 10, 50, 100, 500, 1000, and 5000 μM) and amifampridine (final concentration of 50 μM) were added to the reaction mixture and incubated for 15 min at 37 °C. An amount of 50 μL of the mixture was then transferred into the tube and mixed with 100 μL of IS (5 ng/mL ondansetron in acetonitrile). The mixture was vortexed and centrifuged at 14,000 rpm for 15 min at 4 °C. The supernatant was transferred into vials for HPLC-MS/MS analysis and the concentration of 3-N-acetylamifampridine was determined.

[4] = In vivo pharmacokinetic interaction study in rats (plasma); design: species or system rat; conditions: male, Sprague-Dawley, rat, plasma, ip, 100 mg/kg, acetaminophen 100 mg/kg intraperitoneally, rats
Procedure: Male Sprague Dawley (SD) rats (7–8 weeks old, 260–330 g) were purchased from Orient Bio, Inc. (Seongnam, Korea). The rats were housed under a light/dark cycle for 12 h and were left for at least a week before the experiment to adapt to the laboratory environment. Water and food were provided ad libitum. The rats were fasted overnight with free access to water prior to pharmacokinetic studies. The protocols for animal experiments were approved in accordance with the Guidelines for Animal Care and Use of Gachon University (approval no.: GIACUC-R2021006; 13 May 2021).
The rats were anesthetized with a mixture of Rompun and Zoletil by intramuscular injection and received an intraperitoneal injection of vehicle (40:60 PEG400:normal saline; n = 8) or 100 mg/kg acetaminophen (n = 8). After 10 min, 2 mg/kg amifampridine (dissolved in saline) was administered orally. Blood samples were collected at 0, 5, 15, 30, 60, 90, 120, 240, and 360 min and centrifuged at 14,000 rpm for 15 min at 4 °C. For analysis of amifampridine and 3-N-acetylamifampridine, 50 μL of plasma samples was mixed with 100 μL IS solution (5 ng/mL ondansetron in acetonitrile) and the mixture was vortexed followed by centrifugation at 14,000 rpm for 15 min at 4 °C. For the analysis of acetaminophen, 200 μL of IS (tolbutamide 200 ng/mL in methanol) was added to the plasma samples which were diluted 10-fold using the blank plasma and then vortexed for one minute. Further, the samples were centrifuged at 14,000 rpm for 15 min at 4 °C. The supernatants were transferred to LC vials for quantification.
Non-compartment analysis (NCA) was performed to calculate the pharmacokinetic parameters for the in vivo study using WinNonlin (Version 8.3. (Pharsight Corporation, Mountain View, CA, USA)). The area under the plasma concentration–time curve from time 0 to infinity (AUCinf) was calculated by the linear trapezoidal method and standard extrapolation using λ, where λ represents the slope of the terminal phase in a semi-log graph for plasma concentration–time profiles. Renal clearance (CLr) was determined by dividing the accumulated amount of drug excreted in the urine by AUCinf.

NAT2 [5] = target: T1, NAT2; design: method as in PMID 26519524, PMID 9918139; conditions: sulfamethazine acetylation, cited from earlier work
NAT2 [6] = target: T2, NAT2; assay: Reversible inhibition mode of acetaminophen on amifampridine metabolism, rat liver S9 fraction (Lineweaver–Burk, secondary plots); assay type: biochemical
Procedure: To determine the inhibition mechanism of amifampridine metabolism by acetaminophen, various concentrations of amifampridine (40, 80, 160, and 320 μM) were incubated with the rat liver S9 fraction in the presence of different concentrations of acetaminophen (0, 10, 50, 100, and 500 μM). After pre-incubating the reaction mixture containing 2 mM acetyl-CoA for 5 min in a thermomixer at 37 °C, acetaminophen and amifampridine were added and further incubated for 15 min at 37 °C. The samples were diluted five-fold using potassium phosphate buffer, then 50 μL of the diluted samples was transferred into the tube containing 100 μL of IS (5 ng/mL ondansetron in acetonitrile). The mixture was vortexed and centrifuged at 14,000 rpm for 15 min at 4 °C. The supernatant was transferred into vials for HPLC-MS/MS analysis and the concentration of 3-N-acetylamifampridine was determined.
The α value is the degree to which the binding of acetaminophen changes the affinity of the enzyme for amifampridine.

NAT2 [7] = target: T2, NAT2; assay: Time-dependent inhibition of amifampridine metabolism by acetaminophen, rat liver S9 fraction; assay type: biochemical
Procedure: To examine whether acetaminophen could inhibit the metabolic activity of amifampridine in a time-dependent manner, the experiment was conducted by using a high concentration of amifampridine (approximately four-fold Km value) for different pre-incubation times (0, 10, 30, and 60 min) in the presence of different concentrations of acetaminophen (0, 10, 50, 100, and 500 μM). The reaction mixture contained the liver S9 fraction (2 mg/mL protein) and 2 mM acetyl-CoA in potassium phosphate buffer. Then, acetaminophen was added and pre-incubated at different times in a thermomixer at 37 °C. The reaction was then initiated by adding amifampridine (240 μM as a final concentration) and vortex mixing followed by incubation at 37 °C for 15 min. After incubation, the 50 μL aliquot was transferred into a tube containing 200 μL of ice-cold potassium phosphate to dilute it five-fold. […]
Kobs, the observed rate of enzyme loss, was estimated from the negative slopes of the lines using a linear regression analysis of the natural logarithm of metabolite formation as a function of incubation time. The first-order rate constant, Kinact, which represents the maximum rate of enzyme inactivation, was calculated using a nonlinear regression analysis as follows: Kobs=Kinact×I/Ki+I

With `CC(=O)Nc1ccc(O)cc1` [acetaminophen] as the compound, how does the IC50 (NAT2 [1]) read?
The IC50 was 4480 ± 742 µM.

And the Cmax [2]?
The Cmax was at most 200 µM.

What about the “stronger inhibitory effect in rats compared to humans (IC50 ratio)” value (NAT2 [3]) of the same compound?
Its value is “approximately 29 fold”.

What about the Cmax [4] of the same compound?
The Cmax was 54800 ng/mL and 362 µM.

What about the Ki (NAT2 [5]; human liver cytosol from fast acetylators) of the same compound?
Its Ki is 2140 µM.

And the Ki (NAT2 [5]; human liver cytosol from slow acetylators)?
Its Ki is 712 µM.

What about the inhibition mode (NAT2 [6]; Lineweaver–Burk plot, rat liver S9) of the same compound?
Its inhibition mode is “mixed inhibition”.

And the α value (NAT2 [6]; rat liver S9, mixed inhibition model)?
The α value was 3.48.

What about the αKi (NAT2 [6]; secondary plot (y-intercept), rat liver S9) of the same compound?
The αKi was 238.8 ± 25.6 µM.

And the “decrease of metabolic activity of amifampridine” value (NAT2 [7]; acetaminophen pre-incubated with rat liver S9)?
Its value is “approximately 0.31 % per min”.

And the kinact (NAT2 [7]; pre-incubation 0-60 min, amifampridine 240 μM, rat liver S9)?
The kinact was 5.17e-05 s⁻¹.
